CC1(C)C[C@@H]1C(N)=O
Settings | solubility (mole fraction)
in chloroform, 286.26 K | 0.0357
in chloroform, 293.65 K | 0.0395
in chloroform, 296.64 K | 0.0429
in chloroform, 300.25 K | 0.0484
in chloroform, 303.47 K | 0.0529
in chloroform, 308.04 K | 0.0596
in chloroform, 310.96 K | 0.0665
in chloroform, 314.18 K | 0.0699
in chloroform, 317.45 K | 0.0789
in chloroform, 321.27 K | 0.0902
in dichloromethane, 288.72 K | 0.0152
in dichloromethane, 292.45 K | 0.0177
in dichloromethane, 296.11 K | 0.0205
in dichloromethane, 298.74 K | 0.0233
in dichloromethane, 300.83 K | 0.0248
in dichloromethane, 302.2 K | 0.0268
in dichloromethane, 304.6 K | 0.0301
in dichloromethane, 306.27 K | 0.0321
in dichloromethane, 309.29 K | 0.0367
in ethanol, 290.04 K | 0.089
in ethanol, 293.28 K | 0.0945
in ethanol, 296.81 K | 0.101
in ethanol, 299.25 K | 0.107
in ethanol, 302.71 K | 0.116
in ethanol, 306.04 K | 0.123
in ethanol, 309.67 K | 0.134
in ethanol, 313.53 K | 0.148
in ethanol, 318.09 K | 0.163
in ethyl acetate, 288.96 K | 0.0169
in ethyl acetate, 290 K | 0.0205
in ethyl acetate, 294.53 K | 0.0279
in ethyl acetate, 301.16 K | 0.0357
in ethyl acetate, 305.88 K | 0.0409
in ethyl acetate, 311 K | 0.0483
in ethyl acetate, 316.3 K | 0.0557
in ethyl acetate, 323.65 K | 0.0787
in ethyl acetate, 328.41 K | 0.0912
in toluene, 288.7 K | 0.00221
in toluene, 302.9 K | 0.004
in toluene, 311.23 K | 0.00599
in toluene, 318.11 K | 0.00858
in toluene, 324.07 K | 0.011
in toluene, 328.47 K | 0.0137
in toluene, 332.43 K | 0.016
in toluene, 338.07 K | 0.0219
in toluene, 342.25 K | 0.0259
in toluene, 348.06 K | 0.035
in water, 294.8 K | 0.00374
in water, 308.15 K | 0.00499
in water, 314.67 K | 0.00583
in water, 327.39 K | 0.00716
in water, 331.7 K | 0.00917
in water, 336.08 K | 0.0115
in water, 340.86 K | 0.0146
in water, 345.84 K | 0.0177
in water, 353.93 K | 0.026
